Laboratory results taken from ChEMBL document CHEMBL3045458, “Design, synthesis and biological evaluation of novel arylidine-malononitrile derivatives as non-carboxylic inhibitors of protein tyrosine phosphatase 1B” (Med Chem Res, 2013).

Key:
Danio rerio [1] = species: Danio rerio; test: Toxicity in Danio rerio (zebrafish) embryo assessed as mortality at 10 uM after 24 to 72 hr by light microscopic analysis relative to control; format: organism-based; conditions: in vivo
Danio rerio [2] = test: Toxicity in Danio rerio (zebrafish) embryo assessed as oedema at 10 uM after 24 to 72 hr by light microscopic analysis relative to control; format: organism-based; conditions: in vivo
Danio rerio [3] = species: Danio rerio; test: Toxicity in Danio rerio (zebrafish) embryo assessed as deformations at 10 uM after 24 to 72 hr by light microscopic analysis relative to control; format: organism-based; conditions: in vivo
Danio rerio [4] = species: Danio rerio; test: Toxicity in Danio rerio (zebrafish) embryo assessed as developmental delays at 10 uM after 24 to 72 hr by light microscopic analysis relative to control; format: organism-based; conditions: in vivo
[5] = biological target: T1, Tyrosine-protein phosphatase non-receptor type 1 (Homo sapiens) (UniProt P18031); test: Inhibition of PTP1B (unknown origin) at 10 uM
T1 sequence (whole entry): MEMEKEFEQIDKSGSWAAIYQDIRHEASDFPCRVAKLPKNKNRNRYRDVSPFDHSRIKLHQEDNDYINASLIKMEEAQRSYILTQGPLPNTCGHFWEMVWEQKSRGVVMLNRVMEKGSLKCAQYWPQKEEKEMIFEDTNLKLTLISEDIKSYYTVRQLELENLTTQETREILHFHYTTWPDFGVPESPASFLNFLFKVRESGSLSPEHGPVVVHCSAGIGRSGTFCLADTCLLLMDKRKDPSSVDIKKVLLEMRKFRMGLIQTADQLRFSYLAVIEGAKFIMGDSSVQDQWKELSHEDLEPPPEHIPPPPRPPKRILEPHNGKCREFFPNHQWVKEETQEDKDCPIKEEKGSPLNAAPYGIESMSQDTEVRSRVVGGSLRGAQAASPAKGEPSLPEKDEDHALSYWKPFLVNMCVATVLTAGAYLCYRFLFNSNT

L6 (Rattus norvegicus) = test: Glucose uptake in Rattus norvegicus (rat) L6 cells at 50 uM

Structure (SMILES)	Activity (Danio rerio [1])	Activity (Danio rerio [2])	Activity (Danio rerio [3])	Activity (Danio rerio [4])	inhibition [5] [%]	glucose uptake (L6 (Rattus norvegicus)) [%]
N#CC(C#N)=Cc1ccc(OCCSc2nnc(-c3ccccc3)o2)cc1	Non-toxic	Non-toxic	Non-toxic	Non-toxic	54.6	25.3
COc1ccccc1-c1nnc(SCCOc2ccc(C=C(C#N)C#N)cc2)o1	Non-toxic	Non-toxic	Non-toxic	Non-toxic	50	38.5
N#CC(C#N)=Cc1ccc(OCCSc2nnc(-c3ccc(F)cc3)o2)cc1	–	–	–	–	30.4	13.3
N#CC(C#N)=Cc1ccc(OCCSc2nnc(-c3ccc(Cl)cc3)o2)cc1	–	–	–	–	34.3	24.2
N#CC(C#N)=Cc1ccc(OCCSc2nnc(-c3cccc([N+](=O)[O-])c3)o2)cc1	–	–	–	–	41.4	11.8
Cc1ccc(-c2nnc(SCCOc3ccc(C=C(C#N)C#N)cc3)o2)cc1	–	–	–	–	44.5	18.8
N#CC(C#N)=Cc1ccc(OCCSc2nnc(-c3ccccc3Cl)o2)cc1	–	–	–	–	23.4	26.6
COc1cccc(-c2nnc(SCCOc3ccc(C=C(C#N)C#N)cc3)o2)c1	–	–	–	–	39	13.5
